Source: article PMC11370452 (bioRxiv, 2024)

Experiments:
GABABR = GABABR (Rattus norvegicus, UniProt O88871+Q9Z0U4); assay type: cell-based; conditions: with Gαi bystander BRET sensor expression versus control
MOR = conditions: database annotation; cited from earlier work

Sequence of GABABR (Q9Z0U4 17-960 limits assumed): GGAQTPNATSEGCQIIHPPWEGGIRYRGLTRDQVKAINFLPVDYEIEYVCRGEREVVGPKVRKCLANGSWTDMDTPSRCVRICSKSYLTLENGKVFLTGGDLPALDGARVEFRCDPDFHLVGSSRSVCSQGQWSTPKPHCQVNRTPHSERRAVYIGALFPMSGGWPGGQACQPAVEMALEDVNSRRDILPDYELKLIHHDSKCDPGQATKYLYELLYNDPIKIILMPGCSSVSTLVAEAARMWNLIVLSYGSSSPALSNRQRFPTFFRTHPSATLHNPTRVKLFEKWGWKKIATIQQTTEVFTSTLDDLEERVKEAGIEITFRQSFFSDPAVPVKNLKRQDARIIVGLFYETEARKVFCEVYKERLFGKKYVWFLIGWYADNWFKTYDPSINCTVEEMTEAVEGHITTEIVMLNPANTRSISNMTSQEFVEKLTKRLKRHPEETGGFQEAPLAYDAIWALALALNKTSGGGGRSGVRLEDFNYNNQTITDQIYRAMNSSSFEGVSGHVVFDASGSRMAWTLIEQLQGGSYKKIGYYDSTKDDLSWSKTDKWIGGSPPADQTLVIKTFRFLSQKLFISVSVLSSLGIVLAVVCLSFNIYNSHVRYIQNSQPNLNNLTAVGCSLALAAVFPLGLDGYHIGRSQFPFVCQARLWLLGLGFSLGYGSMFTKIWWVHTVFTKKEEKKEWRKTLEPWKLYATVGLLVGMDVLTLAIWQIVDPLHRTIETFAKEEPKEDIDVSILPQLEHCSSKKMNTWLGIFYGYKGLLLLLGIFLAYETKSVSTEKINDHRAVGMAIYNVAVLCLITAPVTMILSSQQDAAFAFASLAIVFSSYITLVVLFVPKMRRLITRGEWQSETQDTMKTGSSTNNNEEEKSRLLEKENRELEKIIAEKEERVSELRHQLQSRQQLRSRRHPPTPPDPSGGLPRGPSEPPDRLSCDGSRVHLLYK
Sequence of GABABR (O88871 41-940 partner): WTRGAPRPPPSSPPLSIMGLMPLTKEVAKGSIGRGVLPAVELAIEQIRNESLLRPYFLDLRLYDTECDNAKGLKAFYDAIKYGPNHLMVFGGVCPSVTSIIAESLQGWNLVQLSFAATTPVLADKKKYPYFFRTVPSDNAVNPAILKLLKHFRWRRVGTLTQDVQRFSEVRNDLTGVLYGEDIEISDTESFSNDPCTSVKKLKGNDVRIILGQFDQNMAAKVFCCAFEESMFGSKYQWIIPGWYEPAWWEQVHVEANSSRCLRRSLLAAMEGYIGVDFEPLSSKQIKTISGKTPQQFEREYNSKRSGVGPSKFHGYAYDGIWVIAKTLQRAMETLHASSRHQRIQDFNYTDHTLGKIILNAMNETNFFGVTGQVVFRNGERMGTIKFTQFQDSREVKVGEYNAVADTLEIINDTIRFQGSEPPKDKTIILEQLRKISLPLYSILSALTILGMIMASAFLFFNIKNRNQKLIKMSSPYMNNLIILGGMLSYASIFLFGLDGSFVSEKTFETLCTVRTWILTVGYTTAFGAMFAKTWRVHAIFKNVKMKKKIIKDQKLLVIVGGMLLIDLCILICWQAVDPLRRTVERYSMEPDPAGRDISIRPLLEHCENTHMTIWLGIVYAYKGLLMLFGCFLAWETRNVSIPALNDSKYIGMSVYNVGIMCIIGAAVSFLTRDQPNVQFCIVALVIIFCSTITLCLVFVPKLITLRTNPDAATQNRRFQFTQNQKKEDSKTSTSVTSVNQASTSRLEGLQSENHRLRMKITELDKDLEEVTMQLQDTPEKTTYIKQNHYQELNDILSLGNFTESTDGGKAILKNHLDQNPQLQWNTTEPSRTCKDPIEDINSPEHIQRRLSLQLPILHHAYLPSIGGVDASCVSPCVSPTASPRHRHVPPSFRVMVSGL

increase in the IC50 of inhibition by GABA (GABABR) | Compound | Agonist efficacy, MOR: IUPHAR annotation (MOR)
~ 4 fold | NCCCC(=O)O [GABA] | 
 | Leu-Enkephalin | partial agonist
